From ChEMBL document CHEMBL1909046, “DrugMatrix in vitro pharmacology data”

How the values were obtained:
[1] = molecular target: T1, Cathepsin G (Homo sapiens, UniProt P08311); assay: biochemical; type: tissue-based, Neutrophil;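 also: inhibition of Cathepsin G enzyme activity, tested on an AMC-conjugated peptide substrate; in other assays of this panel Not Active means under 50% inhibition at 10 µM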
T1 sequence (P08311 whole entry): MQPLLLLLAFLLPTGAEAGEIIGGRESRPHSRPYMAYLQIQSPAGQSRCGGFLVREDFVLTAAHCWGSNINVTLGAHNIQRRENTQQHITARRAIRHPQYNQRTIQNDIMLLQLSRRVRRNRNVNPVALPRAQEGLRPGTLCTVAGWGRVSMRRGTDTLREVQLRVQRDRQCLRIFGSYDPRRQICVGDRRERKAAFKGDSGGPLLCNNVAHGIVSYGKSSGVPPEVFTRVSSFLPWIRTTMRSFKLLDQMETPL

[2] = molecular target: T2, Cysteinyl leukotriene receptor 1 (Homo sapiens, UniProt Q9Y271); type: cell membranes, CHO-K1, Membrane; conditions: cho-k1; also: in other assays of this panel Not Active means under 50% inhibition at 10 µM
T2 sequence (Q9Y271 whole entry): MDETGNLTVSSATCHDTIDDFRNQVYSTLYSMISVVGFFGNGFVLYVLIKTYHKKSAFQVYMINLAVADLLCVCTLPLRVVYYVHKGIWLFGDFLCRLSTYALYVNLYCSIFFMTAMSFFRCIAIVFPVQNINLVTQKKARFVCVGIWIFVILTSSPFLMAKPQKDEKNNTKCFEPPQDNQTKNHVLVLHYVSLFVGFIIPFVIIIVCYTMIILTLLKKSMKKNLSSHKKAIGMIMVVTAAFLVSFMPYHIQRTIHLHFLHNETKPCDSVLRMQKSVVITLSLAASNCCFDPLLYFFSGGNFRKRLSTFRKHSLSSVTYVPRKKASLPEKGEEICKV

[3] = molecular target: Melanocortin receptor 3 (Homo sapiens, UniProt P41968); type: cell membranes, HEK293, Membrane; conditions: hek293; also: in other assays of this panel Not Active means under 50% inhibition at 10 µM
Sequence of Melanocortin receptor 3 (P41968 whole entry): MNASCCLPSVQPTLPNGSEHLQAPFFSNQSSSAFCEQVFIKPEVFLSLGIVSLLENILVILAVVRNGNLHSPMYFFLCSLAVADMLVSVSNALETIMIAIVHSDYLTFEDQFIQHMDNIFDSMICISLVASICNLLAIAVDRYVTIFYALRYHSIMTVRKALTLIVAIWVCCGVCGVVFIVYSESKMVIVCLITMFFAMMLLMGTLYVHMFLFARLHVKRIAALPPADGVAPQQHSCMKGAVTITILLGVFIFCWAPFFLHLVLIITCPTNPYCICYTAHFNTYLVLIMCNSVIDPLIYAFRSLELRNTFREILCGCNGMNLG

[4] = molecular target: T3, Angiotensin-converting enzyme (Oryctolagus cuniculus, UniProt P12822); assay: biochemical; type: tissue-based, Lung;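 also: enzymatic inhibition of angiotensin-converting enzyme measured with FAPGG as the substrate; in other assays of this panel Not Active means under 50% inhibition at 10 µM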
T3 sequence (P12822 whole entry): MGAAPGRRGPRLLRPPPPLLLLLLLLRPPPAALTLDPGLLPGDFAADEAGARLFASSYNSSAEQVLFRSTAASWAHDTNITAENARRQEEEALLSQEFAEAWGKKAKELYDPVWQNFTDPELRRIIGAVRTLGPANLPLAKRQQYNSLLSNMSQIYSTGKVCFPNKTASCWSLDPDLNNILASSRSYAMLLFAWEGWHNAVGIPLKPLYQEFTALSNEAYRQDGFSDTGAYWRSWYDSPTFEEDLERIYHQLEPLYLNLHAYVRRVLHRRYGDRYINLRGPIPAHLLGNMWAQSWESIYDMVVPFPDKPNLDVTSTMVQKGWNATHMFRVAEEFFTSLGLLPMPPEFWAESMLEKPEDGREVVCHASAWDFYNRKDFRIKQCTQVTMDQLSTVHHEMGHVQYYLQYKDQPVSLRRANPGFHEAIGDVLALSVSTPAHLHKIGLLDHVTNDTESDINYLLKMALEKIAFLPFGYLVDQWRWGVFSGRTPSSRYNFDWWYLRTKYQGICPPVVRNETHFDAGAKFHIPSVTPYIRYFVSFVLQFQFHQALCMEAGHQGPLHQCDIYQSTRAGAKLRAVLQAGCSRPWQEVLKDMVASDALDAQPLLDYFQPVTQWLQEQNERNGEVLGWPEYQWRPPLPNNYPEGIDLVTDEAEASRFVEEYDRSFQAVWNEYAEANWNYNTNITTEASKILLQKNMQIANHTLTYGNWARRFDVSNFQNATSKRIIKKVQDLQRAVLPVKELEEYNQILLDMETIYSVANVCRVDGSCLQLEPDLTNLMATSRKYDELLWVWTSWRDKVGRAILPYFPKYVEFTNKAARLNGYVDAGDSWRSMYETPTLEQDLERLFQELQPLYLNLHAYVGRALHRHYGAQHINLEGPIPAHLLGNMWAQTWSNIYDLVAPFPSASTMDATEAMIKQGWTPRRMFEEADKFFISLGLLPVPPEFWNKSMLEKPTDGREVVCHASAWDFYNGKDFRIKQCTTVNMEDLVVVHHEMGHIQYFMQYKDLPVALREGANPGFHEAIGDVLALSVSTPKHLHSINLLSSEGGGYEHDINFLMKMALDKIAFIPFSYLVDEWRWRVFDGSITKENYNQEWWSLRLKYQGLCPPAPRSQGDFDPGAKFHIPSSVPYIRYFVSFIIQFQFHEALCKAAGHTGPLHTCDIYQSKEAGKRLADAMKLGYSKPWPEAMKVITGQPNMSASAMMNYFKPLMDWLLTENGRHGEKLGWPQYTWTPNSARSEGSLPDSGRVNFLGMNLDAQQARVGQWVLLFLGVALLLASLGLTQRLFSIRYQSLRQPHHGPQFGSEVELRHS

[5] = molecular target: Sigma non-opioid intracellular receptor 1 (Homo sapiens, UniProt Q99720); assay: DRUGMATRIX: Sigma1 radioligand binding (ligand: [3H] Haloperidol); type: cell membranes, Jurkat, Membrane; conditions: Not Active = under 50% inhibition at 10 µM
Sequence of Sigma non-opioid intracellular receptor 1 (Q99720 whole entry): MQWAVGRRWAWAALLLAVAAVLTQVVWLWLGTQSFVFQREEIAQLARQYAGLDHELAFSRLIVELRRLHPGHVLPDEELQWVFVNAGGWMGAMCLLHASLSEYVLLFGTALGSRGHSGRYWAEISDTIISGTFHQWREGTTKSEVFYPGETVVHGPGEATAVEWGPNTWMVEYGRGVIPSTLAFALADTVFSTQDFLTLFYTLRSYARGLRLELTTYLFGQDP

[6] = molecular target: 5-hydroxytryptamine receptor 1B (Rattus norvegicus, UniProt P28564); type: cell membranes, Wistar, Cerebral cortex, Membrane; also: in other assays of this panel Not Active means under 50% inhibition at 10 µM
Sequence of 5-hydroxytryptamine receptor 1B (P28564 whole entry): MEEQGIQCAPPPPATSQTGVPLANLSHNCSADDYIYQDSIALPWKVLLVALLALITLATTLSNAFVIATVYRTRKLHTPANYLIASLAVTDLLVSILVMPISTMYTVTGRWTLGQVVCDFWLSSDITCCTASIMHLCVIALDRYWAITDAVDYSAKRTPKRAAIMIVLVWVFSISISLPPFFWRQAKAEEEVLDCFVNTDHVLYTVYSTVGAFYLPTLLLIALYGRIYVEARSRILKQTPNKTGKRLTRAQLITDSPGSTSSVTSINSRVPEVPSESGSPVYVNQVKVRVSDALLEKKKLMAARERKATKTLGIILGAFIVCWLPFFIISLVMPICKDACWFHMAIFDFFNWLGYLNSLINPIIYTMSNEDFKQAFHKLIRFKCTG

| Compound | IC50 ([1]; neutrophil) | IC50 [2] | IC50 [3] | IC50 [4] | IC50 ([5]; jurkat) | IC50 [6] | IC50 ([5]; read-out: IC50) [µM] | Ki ([5]; read-out: Ki) [µM] | Ki ([1]; neutrophil) | Ki [2] | Ki [3] | Ki [4] | Ki ([5]; jurkat) | Ki [6] | IC50 ([1]; read-out: IC50) [µM] |
| --- | --- | --- | --- | --- | --- | --- | --- | --- | --- | --- | --- | --- | --- | --- | --- |
| CCC(C)(C)C(=O)O[C@H]1C[C@@H](C)C=C2C=C[C@H](C)[C@H](CC[C@@H]3C[C@@H](O)CC(=O)O3)[C@H]21 [SIMVASTATIN] | Not Active | Not Active | Not Active | Not Active | Not Active | Not Active |  |  |  |  |  |  |  |  |  |
| Cc1ccnc(NS(=O)(=O)c2ccc(N)cc2)n1 [SULFAMERAZINE] | Not Active | Not Active | Not Active | Not Active | Not Active | Not Active |  |  |  |  |  |  |  |  |  |
| CCN(CC)N=O [N-NITROSODIETHYLAMINE] | Not Active | Not Active | Not Active | Not Active | Not Active | Not Active |  |  |  |  |  |  |  |  |  |
| CC#C[C@]1(O)CC[C@H]2[C@@H]3CCC4=CC(=O)CCC4=C3[C@@H](c3ccc(N(C)C)cc3)C[C@@]21C [MIFEPRISTONE] | Not Active | Not Active | Not Active | Not Active |  | Not Active | 26.3 | 11 |  |  |  |  |  |  |  |
| LEAD(IV) ACETATE | Not Active | Not Active | Not Active | Not Active | Not Active | Not Active |  |  | Not Active | Not Active | Not Active | Not Active | Not Active | Not Active |  |
| O=C(OC[C@H]1O[C@@H](OC(=O)c2cc(O)c(O)c(OC(=O)c3cc(O)c(O)c(O)c3)c2)[C@H](OC(=O)c2cc(O)c(O)c(OC(=O)c3cc(O)c(O)c(O)c3)c2)[C@@H](OC(=O)c2cc(O)c(O)c(OC(=O)c3cc(O)c(O)c(O)c3)c2)[C@@H]1OC(=O)c1cc(O)c(O)c(OC(=O)c2cc(O)c(O)c(O)c2)c1)c1cc(O)c(O)c(OC(=O)c2cc(O)c(O)c(O)c2)c1 [TANNIC ACID] | Not Active | Not Active | Not Active | Not Active | Not Active | Not Active |  |  |  |  |  |  |  |  |  |
| CN(C)CCC=C1c2ccccc2COc2ccccc21 [DOXEPIN] | Not Active | Not Active | Not Active | Not Active |  | Not Active | 0.631 | 0.265 |  |  |  |  |  |  |  |
| Oc1ccc(/C=C/c2cc(O)cc(O)c2)cc1 [RESVERATROL] | Not Active | Not Active | Not Active | Not Active | Not Active | Not Active |  |  |  |  |  |  |  |  |  |
| CC[C@@]1(O)C(=O)OCc2c1cc1n(c2=O)Cc2cc3c(CN(C)C)c(O)ccc3nc2-1 [TOPOTECAN] | Not Active | Not Active | Not Active | Not Active | Not Active | Not Active |  |  |  |  |  |  |  |  |  |
| C=CCc1ccc2c(c1)OCO2 [SAFROLE] | Not Active | Not Active | Not Active | Not Active | Not Active | Not Active |  |  |  |  |  |  |  |  |  |
| C1CCN2C[C@@H]3C[C@@H](CN4CCCC[C@@H]34)[C@H]2C1 [SPARTEINE] | Not Active | Not Active | Not Active | Not Active | Not Active | Not Active |  |  |  |  |  |  |  |  |  |
| CC[C@H](C)C(=O)O[C@H]1CCC=C2C=C[C@H](C)[C@H](CC[C@@H]3C[C@@H](O)CC(=O)O3)[C@H]21 [MEVASTATIN] | Not Active | Not Active | Not Active | Not Active | Not Active | Not Active |  |  |  |  |  |  |  |  |  |
| CS(=O)(=O)c1ccc(C2=C(c3ccccc3)C(=O)OC2)cc1 [ROFECOXIB] | Not Active | Not Active | Not Active | Not Active | Not Active | Not Active |  |  |  |  |  |  |  |  |  |
| Cc1cn([C@H]2C=C[C@@H](CO)O2)c(=O)[nH]c1=O [STAVUDINE] | Not Active | Not Active | Not Active | Not Active | Not Active | Not Active |  |  |  |  |  |  |  |  |  |
| CNCCCC12CCC(c3ccccc31)c1ccccc12 [MAPROTILINE] | Not Active | Not Active | Not Active | Not Active | Not Active | Not Active |  |  |  |  |  |  |  |  |  |
| Nc1nc(N)c2nc(-c3ccccc3)c(N)nc2n1 |  | Not Active | Not Active | Not Active | Not Active | Not Active |  |  |  |  |  |  |  |  | 7.41 |
| Cc1[nH]c(=O)c(C#N)cc1-c1ccncc1 [MILRINONE] | Not Active | Not Active | Not Active | Not Active | Not Active | Not Active |  |  |  |  |  |  |  |  |  |
| C[C@]12CCC(=O)C[C@@H]1CC[C@@H]1[C@@H]2CC[C@]2(C)[C@@H](O)CC[C@@H]12 [STANOLONE] | Not Active | Not Active | Not Active | Not Active | Not Active | Not Active |  |  |  |  |  |  |  |  |  |
| CC1(C)[C@H](C(=O)O)N2C(=O)C[C@H]2S1(=O)=O [SULBACTAM] | Not Active | Not Active | Not Active | Not Active | Not Active | Not Active |  |  |  |  |  |  |  |  |  |
| CCOC(=O)C1=C(C)NC(C)=C(C(=O)OCC)C1c1ccccc1/C=C/C(=O)OC(C)(C)C [LACIDIPINE] | Not Active | Not Active | Not Active | Not Active | Not Active | Not Active |  |  |  |  |  |  |  |  |  |
| CC(N)C12CC3CC(CC(C3)C1)C2 (stereo not given) [RIMANTADINE] | Not Active | Not Active | Not Active | Not Active | Not Active | Not Active |  |  |  |  |  |  |  |  |  |
| CO[C@@]12[C@H](COC(N)=O)C3=C(C(=O)C(C)=C(N)C3=O)N1C[C@@H]1N[C@@H]12 [MITOMYCIN] | Not Active | Not Active | Not Active | Not Active | Not Active | Not Active |  |  |  |  |  |  |  |  |  |
